# Experimental data published in the supplement of paper PMC10307832.
# Key:
# Assay in all cases: relative viability (nuclei count vs DMSO), 5 days (fraction); higher = more cells survive
# [1] = compound: CN(c1ncccc1CNc1nc(Nc2ccc3c(c2)CC(=O)N3)ncc1C(F)(F)F)S(C)(=O)=O + CCNC(=O)c1noc(-c2cc(C(C)C)c(O)cc2O)c1-c1ccc(CN2CCOCC2)cc1 [Luminespib] (partner 0.01 µM)
# How it was run: (§1)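 Lung cancer cell lines were pin-tool dosed in 1536-well plates on the day after seeding, with either a lone drug or a fixed anchor-drug dose plus five library-drug doses (not always all listed) in √10 steps. Nuclei were counted on 4× images after 5 days. Relative viability is the ratio of treated-well to vehicle-well nuclei counts, with each value a median of duplicate plates.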
# [2] = compound: CN(c1ncccc1CNc1nc(Nc2ccc3c(c2)CC(=O)N3)ncc1C(F)(F)F)S(C)(=O)=O + C[C@]1(O)C[C@@H](c2nc(-c3ccc4ccc(-c5ccccc5)nc4c3)c3c(N)nccn32)C1 [Linsitinib] (partner 1 µM)
# How it was run: as §1
# [3] = compound: CN(c1ncccc1CNc1nc(Nc2ccc3c(c2)CC(=O)N3)ncc1C(F)(F)F)S(C)(=O)=O + COc1cccc2cc(-c3nc([C@H]4CC[C@H](C(=O)O)CC4)n4ncnc(N)c34)[nH]c12 [OSI-027] (partner 0.5 µM)
# How it was run: as §1
# [4] = compound: CN(c1ncccc1CNc1nc(Nc2ccc3c(c2)CC(=O)N3)ncc1C(F)(F)F)S(C)(=O)=O + CS(=O)(=O)CCNCc1ccc(-c2ccc3ncnc(Nc4ccc(OCc5cccc(F)c5)c(Cl)c4)c3c2)o1 [Lapatinib] (partner 2 µM)
# How it was run: as §1
Cell Line,relative viability ([1]; first compound 0.01 µM),relative viability ([1]; first compound 0.03162 µM),relative viability ([1]; first compound 0.1 µM),relative viability ([1]; first compound 0.3162 µM),relative viability ([1]; first compound 1 µM),relative viability ([2]; first compound 0.01 µM),relative viability ([2]; first compound 0.03162 µM),relative viability ([2]; first compound 0.1 µM),relative viability ([2]; first compound 0.3162 µM),relative viability ([2]; first compound 1 µM),relative viability ([3]; first compound 0.01 µM),relative viability ([3]; first compound 0.03162 µM),relative viability ([3]; first compound 0.1 µM),relative viability ([3]; first compound 0.3162 µM),relative viability ([3]; first compound 1 µM),relative viability ([4]; first compound 0.01 µM),relative viability ([4]; first compound 0.03162 µM),relative viability ([4]; first compound 0.1 µM),relative viability ([4]; first compound 0.3162 µM),relative viability ([4]; first compound 1 µM)
NCI-H2087,0.164,0.239,0.162,0.185,0.185,1.03,1.04,1.14,1.16,0.99,0.513,0.766,0.594,0.659,0.585,1.44,1.12,0.876,0.927,0.893
NCI-H2228,0.144,0.23,0.0915,0.182,0.103,0.502,0.286,0.627,1.06,0.929,0.825,0.827,0.563,0.514,0.464,0.835,0.914,1.02,1.07,1.08
NCI-H727,0.407,0.232,0.289,0.25,0.367,0.317,0.305,0.352,0.273,0.21,0.782,0.75,0.649,0.59,0.537,0.813,1.09,0.549,0.85,0.676
NCI-H650,0.773,0.779,0.655,0.728,0.654,0.948,0.696,0.644,0.764,0.76,0.401,0.555,0.408,0.455,0.465,0.977,0.971,0.813,0.703,0.992
NCI-H520,0.209,0.242,0.205,0.2,0.183,1.03,0.941,1,1.03,0.842,0.339,0.331,0.244,0.321,0.344,0.917,1.02,0.845,0.838,1.04
EBC-1,,,,,,0.951,1.01,0.889,0.91,0.788,,,,,,0.217,0.187,0.248,0.204,0.2
NCI-H661,0.854,0.928,0.837,0.871,0.876,0.657,0.722,0.563,0.679,0.637,0.69,0.668,0.641,0.774,0.784,0.481,0.496,0.652,0.534,0.637
NCI-H1299,,,,,,1.06,1.05,0.961,0.976,0.986,,,,,,1.03,0.949,1,0.988,0.972
LK-2,0.175,0.174,0.165,0.201,0.235,0.631,0.534,0.546,0.526,0.766,0.198,0.157,0.244,0.205,0.18,1.16,1.21,1.02,0.984,1
NCI-H1993,0.859,0.849,0.752,0.755,0.65,0.678,0.727,0.78,0.771,0.736,0.456,0.508,0.5,0.541,0.525,0.804,0.91,0.82,0.889,0.769
NCI-H2170,0.722,0.799,0.707,0.749,0.424,,,,,,0.672,0.695,0.679,0.791,0.752,0.263,0.254,0.267,,0.276
SW 900,0.216,0.2,0.19,0.154,0.168,,,,,,0.623,0.574,0.659,0.514,0.49,,,,,
LCLC-103H,0.754,0.927,0.918,0.892,0.752,1.1,1.1,0.983,0.977,0.88,0.497,0.399,0.422,0.448,0.424,,,,,
NCI-H441,0.435,0.322,0.369,0.331,0.287,0.457,0.707,0.513,0.583,0.536,0.76,0.725,0.596,0.77,0.518,,,,,
NCI-H1650,0.203,0.207,0.194,0.193,0.198,,,,,,0.64,0.727,0.701,0.612,0.645,0.78,0.9,0.805,,0.592
NCI-H522,1.17,1.2,1.17,1.14,1.15,,,,,,0.717,0.703,0.726,0.742,0.798,,,,,
IA-LM,,,,,,0.6,0.54,0.583,,0.599,,,,,,0.884,0.82,0.887,0.608,0.56
HCC-366,,,,,,0.488,0.913,0.591,0.576,0.508,0.786,1.01,0.846,0.996,0.973,1,1.11,1.05,1.06,0.971
NCI-H2342,0.702,0.736,0.643,0.632,0.723,,,,,,0.579,0.614,0.617,0.519,0.57,,,,,
HCC-78,,,,,,0.654,0.578,0.425,0.439,0.486,0.378,0.399,0.36,0.421,0.353,1.09,0.748,0.708,0.713,0.329
